The text below walks through data of patent US20050026959A1, “Ethanol solvate of (-)-cis-2-(2-chloropheny)-5,7-dihydroxy-8-[4R-(3S-hydroxy-1-methyl)piperidinyl]-4H-1benzopyran-4-one” (Aventis Pharma Deutschland GmbH, priority 2000, published 2005).

A short description of data set [1]: Hygroscopicity of the solid form. In kind it is physicochemical. The source says:
Form II is hygroscopic. It can be used in water free form or in a form with a certain water content. The use in a form, which is essentially free from water is preferred.

Data set [2] has as its system cyclin dependent kinases (CDKs) including CDK1, CDK2, CDK4, CDK6 and CDK7. The settings on record: cdk1/cyclin B; cdk2/cyclin A; cdk2/cyclin E; cdk4/cyclinD; cdk6/cyclin D; cdk7/cyclin H; Int. J. Oncology 9: 1143-1168 (1996); cited from earlier work.

`CN1CC[C@H](c2c(O)cc(O)c3c(=O)cc(-c4ccccc4Cl)oc23)[C@H](O)C1.Cl` (relative stereo) [Form II, (−)-cis-2-(2-chlorophenyl)-5,7-dihydroxy-8-[4R-(3S-hydroxy-1-methyl)piperidinyl]-4H-1-benzopyran-4-one hydrochloride]: the hygroscopicity result in data set [1] was “hygroscopic”. On to `CN1CC[C@H](c2c(O)cc(O)c3c(=O)cc(-c4ccccc4Cl)oc23)[C@H](O)C1` [Flavopiridol, (−)-cis-2-(2-chlorophenyl)-5,7-dihydroxy-8-[4R-(3S-hydroxyl-1-methyl)piperidinyl]-4H-1-benzopyran-4-one], for which the “inhibition of cyclin dependent kinases” value in data set [2] is given as “strong inhibitor”.
